Measured values from the supplement of paper PMC11061612.

Tests used:
SN-38 = compound: CCc1c2c(nc3ccc(O)cc13)-c1cc3c(c(=O)n1C2)COC(=O)[C@]3(O)CC [SN-38]; settings: max 0.3 µM
How it was run: (§1)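 Cancer cell lines were seeded in 1536-well plates in 7.5 μl DMEM/F12 or RPMI with 10% FBS, held 24 hours at 37°C and 5% CO2, then dosed for 72 hours (final DMSO typically 0.2%). Viability was read by CellTiter-Glo 2.0 luminescence and scaled between blank-well and DMSO-well means. The single-agent IC50 comes from dose responses fitted to a two-parameter logistic curve with a non-linear mixed effects model.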

AZD2811 = compound: CCN(CCO)CCCOc1ccc2c(Nc3cc(CC(=O)Nc4cccc(F)c4)[nH]n3)ncnc2c1 [AZD2811]; settings: max 1 µM
How it was run: as §1

AZD0156 = compound: CN(C)CCCOc1ccc(-c2ccc3ncc4c(c3c2)n(C2CCOCC2)c(=O)n4C)cn1 [AZD0156]
How it was run: as §1

AZD7648 = compound: Cc1cc2ncnn2cc1Nc1ncc2c(n1)n(C1CCOCC1)c(=O)n2C [AZD7648]; settings: max 10 µM
How it was run: as §1

Gefitinib = compound: COc1cc2ncnc(Nc3ccc(F)c(Cl)c3)c2cc1OCCCN1CCOCC1 [Gefitinib]; settings: max 10 µM
How it was run: as §1

AZD8186 = compound: C[C@@H](Nc1cc(F)cc(F)c1)c1cc(C(=O)N(C)C)cc2c(=O)cc(N3CCOCC3)oc12 [AZD8186]; settings: max 3 µM
How it was run: as §1

Palbociclib = compound: CC(=O)c1c(C)c2cnc(Nc3ccc(N4CCNCC4)cn3)nc2n(C2CCCC2)c1=O [Palbociclib]; settings: max 10 µM
How it was run: as §1

Trametinib = compound: CC(=O)Nc1cccc(-n2c(=O)n(C3CC3)c(=O)c3c(Nc4ccc(I)cc4F)n(C)c(=O)c(C)c32)c1 [Trametinib]; settings: max 1 µM
How it was run: as §1

Crizotinib = compound: C[C@@H](Oc1cc(-c2cnn(C3CCNCC3)c2)cnc1N)c1c(Cl)ccc(F)c1Cl [Crizotinib]; settings: max 10 µM
How it was run: as §1

AZD5991 = compound: Cc1c2c(nn1C)CSCc1cc(n(C)n1)CSc1cc(c3ccccc3c1)OCCCc1c(C(=O)O)n(C)c3c-2c(Cl)ccc13 [AZD5991]; settings: max 1 µM
How it was run: as §1

Savolitinib = compound: C[C@@H](c1ccc2nccn2c1)n1nnc2ncc(-c3cnn(C)c3)nc21 [Savolitinib]; settings: max 1 µM
How it was run: as §1

Olaparib = compound: O=C(c1cc(Cc2n[nH]c(=O)c3ccccc23)ccc1F)N1CCN(C(=O)C2CC2)CC1 [Olaparib]; settings: max 10 µM
How it was run: as §1

AZD1775 = compound: C=CCn1c(=O)c2cnc(Nc3ccc(N4CCN(C)CC4)cc3)nc2n1-c1cccc(C(C)(C)O)n1 [AZD1775]
How it was run: as §1

AZD5153 = compound: COc1nnc2ccc(N3CCC(c4ccc(OCCN5CCN(C)C(=O)[C@H]5C)cc4)CC3)nn12 [AZD5153]; settings: max 1 µM
How it was run: as §1

AZD4320 = compound: CN(CC[C@H](CSC1=CC=CC=C1)NC2=C(C=C(C=C2)S(=O)(=O)NC(=O)C3=CC=C(C=C3)N4CCC(CC4)[C@H](C5=CC=CC=C5C6=CC=C(C=C6)Cl)O)S(=O)(=O)C(F)(F)F)CCO [AZD4320]; settings: max 1 µM
How it was run: as §1

Venetoclax = compound: CC1(C)CCC(CN2CCN(c3ccc(C(=O)NS(=O)(=O)c4ccc(NCC5CCOCC5)c([N+](=O)[O-])c4)c(Oc4cnc5[nH]ccc5c4)c3)CC2)=C(c2ccc(Cl)cc2)C1 [Venetoclax]; settings: max 1 µM
How it was run: as §1

Lapatinib = compound: CS(=O)(=O)CCNCc1ccc(-c2ccc3ncnc(Nc4ccc(OCc5cccc(F)c5)c(Cl)c4)c3c2)o1 [Lapatinib]; settings: max 10 µM
How it was run: as §1

AZD6738 = compound: C[C@@H]1COCCN1C2=NC(=NC(=C2)C3(CC3)[S@](=N)(=O)C)C4=C5C=CNC5=NC=C4 [AZD6738]; settings: max 10 µM
How it was run: as §1

Doxorubicin = compound: COc1cccc2c1C(=O)c1c(O)c3c(c(O)c1C2=O)C[C@@](O)(C(=O)CO)C[C@@H]3O[C@H]1C[C@H](N)[C@H](O)[C@H](C)O1 [Doxorubicin]; settings: max 1 µM
How it was run: as §1

AZD1390 = compound: CC(C)n1c(=O)n(C)c2cnc3cc(F)c(-c4ccc(OCCCN5CCCCC5)nc4)cc3c21 [AZD1390]; settings: max 0.3 µM
How it was run: as §1

SG3199 = compound: CC1=CN2[C@@H](C1)C=NC3=CC(=C(C=C3C2=O)OC)OCCCCCOC4=C(C=C5C(=C4)N=C[C@@H]6CC(=CN6C5=O)C)OC [SG3199]; settings: max 0.001 µM
How it was run: as §1

Dasatinib = compound: CC1=C(C(=CC=C1)Cl)NC(=O)C2=CN=C(S2)NC3=CC(=NC(=N3)C)N4CCN(CC4)CCO [Dasatinib]; settings: max 2 µM
How it was run: as §1

Taselisib = compound: Cc1nc(-c2cn3c(n2)-c2ccc(-c4cnn(C(C)(C)C(N)=O)c4)cc2OCC3)n(C(C)C)n1 [Taselisib]; settings: max 10 µM
How it was run: as §1

Capivasertib = compound: C1CN(CCC1(C(=O)N[C@@H](CCO)C2=CC=C(C=C2)Cl)N)C3=NC=NC4=C3C=CN4 [Capivasertib]
How it was run: as §1

Alisertib = compound: COc1cc(Nc2ncc3c(n2)-c2ccc(Cl)cc2C(c2c(F)cccc2OC)=NC3)ccc1C(=O)O [Alisertib]; settings: max 10 µM
How it was run: as §1

Prexasertib = compound: COc1cccc(OCCCN)c1-c1cc(Nc2cnc(C#N)cn2)n[nH]1 [Prexasertib]; settings: max 1 µM
How it was run: as §1

Selumetinib = compound: Cn1cnc2c(F)c(Nc3ccc(Br)cc3Cl)c(C(=O)NOCCO)cc21 [Selumetinib]
How it was run: as §1

Row | Cell Line | IC50, cell viability 72 h (SN-38) | IC50, cell viability 72 h (AZD2811) | IC50, cell viability 72 h (AZD0156; max 3 µM) | IC50, cell viability 72 h (AZD7648) | IC50, cell viability 72 h (Gefitinib) | IC50, cell viability 72 h (AZD8186) | IC50, cell viability 72 h (Palbociclib) | IC50, cell viability 72 h (Trametinib) | IC50, cell viability 72 h (Crizotinib) | IC50, cell viability 72 h (AZD5991) | IC50, cell viability 72 h (Savolitinib) | IC50, cell viability 72 h (Olaparib) | IC50, cell viability 72 h (AZD1775; max 3 µM) | IC50, cell viability 72 h (AZD5153) | IC50, cell viability 72 h (AZD4320) | IC50, cell viability 72 h (Venetoclax) | IC50, cell viability 72 h (Lapatinib) | IC50, cell viability 72 h (AZD6738) | IC50, cell viability 72 h (Doxorubicin) | IC50, cell viability 72 h (AZD1390) | IC50, cell viability 72 h (SG3199) | IC50, cell viability 72 h (Dasatinib) | IC50, cell viability 72 h (Taselisib) | IC50, cell viability 72 h (Capivasertib; max 10 µM) | IC50, cell viability 72 h (Alisertib) | IC50, cell viability 72 h (Prexasertib) | IC50, cell viability 72 h (Selumetinib; max 10 µM) | IC50, cell viability 72 h (AZD0156; max 1 µM) | IC50, cell viability 72 h (AZD1775; max 1 µM) | IC50, cell viability 72 h (Capivasertib; max 3 µM) | IC50, cell viability 72 h (Selumetinib; max 3 µM)
1 | NB1 (Neuroblastoma) | 24 nM | 186 nM | > 3000 nM | > 10000 nM | > 10000 nM | > 3000 nM | > 10000 nM | > 1000 nM | 628 nM | > 1000 nM | > 1000 nM | > 10000 nM | 1360 nM | > 1000 nM | > 1000 nM | > 1000 nM | > 10000 nM | 4730 nM | > 1000 nM | > 300 nM | > 1 nM | > 2000 nM | 1200 nM | 5180 nM | > 10000 nM | 184 nM | > 10000 nM | – | – | – | –
2 | NCI-H1341 (Small Cell Lung Carcinoma) | 13.8 nM | > 1000 nM | > 3000 nM | > 10000 nM | > 10000 nM | > 3000 nM | > 10000 nM | > 1000 nM | > 10000 nM | > 1000 nM | > 1000 nM | > 10000 nM | 1240 nM | 739 nM | 59.3 nM | > 1000 nM | > 10000 nM | 6030 nM | 587 nM | > 300 nM | > 1 nM | > 2000 nM | 684 nM | 9050 nM | 910 nM | 47.1 nM | > 10000 nM | – | – | – | –
3 | NCI-H1963 (Small Cell Lung Carcinoma) | 36.7 nM | 36.1 nM | – | > 10000 nM | > 10000 nM | > 3000 nM | 6900 nM | > 1000 nM | 3040 nM | > 1000 nM | > 1000 nM | > 10000 nM | – | 99.3 nM | 15.2 nM | 614 nM | > 10000 nM | 2730 nM | 830 nM | > 300 nM | > 1 nM | > 2000 nM | 9650 nM | > 10000 nM | 208 nM | 44.3 nM | 8820 nM | > 1000 nM | 525 nM | – | –
4 | NCI-H2373 (Mesothelioma) | 58.9 nM | > 1000 nM | > 3000 nM | > 10000 nM | > 10000 nM | > 3000 nM | > 10000 nM | > 1000 nM | > 10000 nM | > 1000 nM | > 1000 nM | > 10000 nM | > 3000 nM | > 1000 nM | > 1000 nM | > 1000 nM | > 10000 nM | > 10000 nM | 313 nM | > 300 nM | > 1 nM | > 2000 nM | 3520 nM | > 10000 nM | > 10000 nM | > 1000 nM | > 10000 nM | – | – | – | –
5 | NMC-G1 (Low Grade Glioma) | > 300 nM | > 1000 nM | – | > 10000 nM | – | > 3000 nM | – | > 1000 nM | – | > 1000 nM | – | > 10000 nM | – | – | > 1000 nM | > 1000 nM | – | > 10000 nM | > 1000 nM | – | > 1 nM | – | > 10000 nM | – | > 10000 nM | > 1000 nM | – | > 1000 nM | > 1000 nM | > 3000 nM | > 3000 nM
6 | OVCAR-3 (Ovarian Carcinoma) | 231 nM | > 1000 nM | > 3000 nM | > 10000 nM | > 10000 nM | > 3000 nM | > 10000 nM | > 1000 nM | > 10000 nM | > 1000 nM | > 1000 nM | > 10000 nM | 1600 nM | 475 nM | > 1000 nM | > 1000 nM | > 10000 nM | > 10000 nM | > 1000 nM | > 300 nM | > 1 nM | > 2000 nM | 5630 nM | > 10000 nM | > 10000 nM | 198 nM | > 10000 nM | – | – | – | –
7 | P30-OHK (B-Lymphoblastic Leukemia) | 9.37 nM | 37.9 nM | > 3000 nM | > 10000 nM | > 10000 nM | > 3000 nM | > 10000 nM | > 1000 nM | 2780 nM | 835 nM | > 1000 nM | > 10000 nM | 660 nM | 63.3 nM | 173 nM | > 1000 nM | > 10000 nM | 3470 nM | 202 nM | > 300 nM | > 1 nM | > 2000 nM | 6340 nM | > 10000 nM | 231 nM | 20.5 nM | > 10000 nM | – | – | – | –
8 | TUR (Acute Myeloid Leukemia) | 22.9 nM | > 1000 nM | > 3000 nM | > 10000 nM | > 10000 nM | > 3000 nM | > 10000 nM | > 1000 nM | > 10000 nM | – | > 1000 nM | > 10000 nM | 575 nM | > 1000 nM | > 1000 nM | > 1000 nM | > 10000 nM | 3440 nM | 626 nM | > 300 nM | > 1 nM | > 2000 nM | 1210 nM | 2860 nM | > 10000 nM | 16.4 nM | > 10000 nM | – | – | – | –
